Where “and” joins values, the source holds several entries; their conditions need not be identical. Equal entries are not always repeated.
What was measured:
[1] = molecular target: T1, Gonadotropin-releasing hormone receptor (Homo sapiens, UniProt P30968); experiment: Inhibition of recombinant human Gonadotropin-releasing hormone receptor
T1 sequence (P30968 whole entry): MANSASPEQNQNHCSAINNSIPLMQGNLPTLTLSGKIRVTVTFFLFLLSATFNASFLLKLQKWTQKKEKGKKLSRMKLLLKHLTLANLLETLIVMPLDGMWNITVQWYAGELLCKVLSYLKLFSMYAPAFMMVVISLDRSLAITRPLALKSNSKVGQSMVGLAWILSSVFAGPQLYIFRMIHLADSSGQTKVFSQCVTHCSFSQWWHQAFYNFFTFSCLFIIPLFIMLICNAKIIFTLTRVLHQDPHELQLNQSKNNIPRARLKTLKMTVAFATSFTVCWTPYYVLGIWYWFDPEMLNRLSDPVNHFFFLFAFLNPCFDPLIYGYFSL

[2] = molecular target: T2, Gonadotropin-releasing hormone receptor (Rattus norvegicus, UniProt P30969); experiment: Binding affinity to Gonadotropin-releasing hormone receptor (GnRHr) in rat pituitary cells
T2 sequence (P30969 whole entry): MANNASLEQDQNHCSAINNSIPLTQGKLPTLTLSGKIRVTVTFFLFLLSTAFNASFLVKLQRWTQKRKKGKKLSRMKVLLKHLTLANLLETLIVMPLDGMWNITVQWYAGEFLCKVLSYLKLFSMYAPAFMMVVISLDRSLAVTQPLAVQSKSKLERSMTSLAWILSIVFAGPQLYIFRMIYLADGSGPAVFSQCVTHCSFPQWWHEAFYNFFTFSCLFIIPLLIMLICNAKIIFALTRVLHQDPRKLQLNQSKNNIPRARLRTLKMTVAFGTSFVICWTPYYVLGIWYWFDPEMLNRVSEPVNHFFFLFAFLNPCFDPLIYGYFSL

[3] = Compound was evaluated for its antagonism in CHO cells expressing the human receptor (hPI); format: functional, cell-based
[4] = molecular target: T2, Gonadotropin-releasing hormone receptor; experiment: Compound was evaluated for its antagonism in rat primary pituitary cell assay (rLH); format: functional, cell-based, Pituitary gland cell
[5] = molecular target: T2, Gonadotropin-releasing hormone receptor; experiment: Compound was evaluated for its inhibitory activity against rat pituitary Gonadotropin-releasing hormone receptor

| IC50 [2] | Compound | other results |
| --- | --- | --- |
| – | Cc1cc(C)cc(-c2c(OCC[C@@H]3CCCCN3)c3cc(NC(=O)NC4CC4)c(Cl)cc3[nH]c2=O)c1 | IC50 [1]: 2.3 nM |
| 40 nM | O=c1[nH]c2cc(Cl)c([N+](=O)[O-])cc2c(OCCC2CCCCN2)c1-c1cccc(Cl)c1 (stereo not drawn) | – |
| 410 nM | O=c1[nH]c2cc(Cl)c([N+](=O)[O-])cc2c(OCCC2CCCCN2)c1-c1ccccc1 (stereo not drawn) | – |
| 25 nM | Cc1cc(C)cc(-c2c(O)nc3cc(Cl)c(NC(=O)c4cncnc4)cc3c2OCC[C@@H]2CCCCN2)c1 | IC50 [3]: 225 nM |
| 6 nM | O=C(Nc1cc2c(OCCC3CCCCN3)c(-c3cccc(Br)c3)c(=O)[nH]c2cc1Cl)NC1CC1 (stereo not drawn) | – |
| 24 nM | O=c1[nH]c2cc(Cl)c([N+](=O)[O-])cc2c(OCCC2CCCCN2)c1-c1cc(Cl)cc(Cl)c1 (stereo not drawn) | – |
| 160 nM | O=c1[nH]c2cc(Cl)c([N+](=O)[O-])cc2c(OCCC2CCCCN2)c1-c1ccc(Cl)cc1 (stereo not drawn) | – |
| 71 nM | O=c1[nH]c2cc(Cl)c([N+](=O)[O-])cc2c(OCCC2CCCCN2)c1-c1cc(C(F)(F)F)cc(C(F)(F)F)c1 (stereo not drawn) | – |
| 68 nM | O=C(Nc1cc2c(OCCC3CCCCN3)c(-c3ccc4ccccc4c3)c(=O)[nH]c2cc1Cl)NC1CC1 (stereo not drawn) | – |
| – | O=C(Nc1ccncn1)c1cc2c(OCC[C@@H]3CCCCN3)c(-c3ccc(Cl)s3)c(O)nc2cc1Cl | IC50 [1]: 3.9 nM; IC50 [3]: 53 nM |
| 45 nM | CC(=O)OCc1cc(C)cc(-c2c(O)nc3cc(Cl)c([N+](=O)[O-])cc3c2OCCC2CCCCN2)c1 (stereo not drawn) | – |
| 40 nM | O=[N+]([O-])c1cc2c(OCCC3CCCCN3)c(-c3cccc(Br)c3)c(O)nc2cc1Cl (stereo not drawn) | – |
| 400 nM | Cc1ccc(-c2c(O)nc3cc(Cl)c([N+](=O)[O-])cc3c2OCCC2CCCCN2)c(C)c1 (stereo not drawn) | – |
| 27 nM | Cc1cccc(-c2c(O)nc3cc(Cl)c([N+](=O)[O-])cc3c2OCCC2CCCCN2)c1 (stereo not drawn) | – |
| 6 nM | Cc1ccc(-c2c(OCCC3CCCCN3)c3cc(NC(=O)NC4CC4)c(Cl)cc3[nH]c2=O)cc1C (stereo not drawn) | – |
| – | Cc1cc(-c2c(O)nc3cc(Cl)c(C(=O)Nc4ccncn4)cc3c2OCC[C@@H]2CCCCN2)cc(C)c1C | IC50 [1]: 0.3 nM; IC50 [3]: 2.2 nM |
| 6 nM | Cc1cc(C)cc(-c2c(O)nc3cc(Cl)c(NC(=O)Nc4ncccn4)cc3c2OCCC2CCCCN2)c1 (stereo not drawn) | – |
| – | Cc1cc(C)cc(-c2c(O)nc3cc(Cl)c(NC(=O)Nc4cncnc4)cc3c2OCC[C@@H]2CCCCN2)c1 | IC50 [1]: 57 nM; IC50 [3]: 897 nM |
| 20 nM | Cc1cc(C)cc(-c2c(O)nc3cc(Cl)c(NC(=O)Nc4cccnc4)cc3c2OCCC2CCCCN2)c1 (stereo not drawn) | IC50 [4]: 1300 nM |
| 10 nM | Cc1cc(C)cc(-c2c(OCCC3CCCCN3)c3cc(NC(=O)Nc4ccccc4)c(Cl)cc3[nH]c2=O)c1 (stereo not drawn) | IC50 [4]: 3300 nM |
| 900 nM | O=c1[nH]c2cc(Cl)c([N+](=O)[O-])cc2c(OCCC2CCCCN2)c1-c1ccsc1 (stereo not drawn) | – |
| 18 nM | Cc1ccc(-c2c(OCCC3CCCCN3)c3cc([N+](=O)[O-])c(Cl)cc3[nH]c2=O)cc1C (stereo not drawn) | – |
| 0.8 nM | Cc1cc(C)cc(-c2c(O)nc3cc(Cl)c(NC(=O)NC4CC4)cc3c2OCCC2CCCCN2)c1 (stereo not drawn) | IC50 [4]: 375 nM and 682 nM; IC50 [5]: 1.1 nM; IC50 [3]: 12 nM and 5 nM |
| – | Cc1cc(C)cc(-c2c(O)nc3cc(Cl)c(NC(=O)c4cnccn4)cc3c2OCC[C@@H]2CCCCN2)c1 | IC50 [1]: 2 nM; IC50 [3]: 23 nM |
| – | Cc1ccc(-c2c(O)nc3cc(Cl)c(C(=O)Nc4ccncn4)cc3c2OCC[C@@H]2CCCCN2)cc1C | IC50 [1]: 0.7 nM; IC50 [3]: 6.5 nM |
| 18 nM | Cc1cc(CC#N)cc(-c2c(O)nc3cc(Cl)c([N+](=O)[O-])cc3c2OCCC2CCCCN2)c1 (stereo not drawn) | – |
| 7.9 nM | Cc1cc(C)cc(-c2c(O)nc3cc(Cl)c(CC(=O)Nc4ccncn4)cc3c2OCCC2CCCCN2)c1 (stereo not drawn) | IC50 [4]: 2500 nM; IC50 [3]: 227 nM |

| IC50 [2] | Compound | other results |
| --- | --- | --- |
| 23 nM | O=c1[nH]c2cc(Cl)c([N+](=O)[O-])cc2c(OCCC2CCCCN2)c1-c1ccc(Cl)s1 (stereo not drawn) | – |
| – | O=C(Nc1ccncn1)c1cc2c(OCC[C@@H]3CCCCN3)c(-c3cc(Cl)cc(Cl)c3)c(O)nc2cc1Cl | IC50 [1]: 1.1 nM; IC50 [3]: 8.5 nM |
| 71 nM | Cc1cc(CC(N)=O)cc(-c2c(O)nc3cc(Cl)c([N+](=O)[O-])cc3c2OCCC2CCCCN2)c1 (stereo not drawn) | – |
| 200 nM | CC(C)(C)c1ccc(-c2c(OCCC3CCCCN3)c3cc([N+](=O)[O-])c(Cl)cc3[nH]c2=O)cc1 (stereo not drawn) | – |
| 53 nM | O=[N+]([O-])c1cc2c(OCCC3CCCCN3)c(-c3cccc(F)c3)c(O)nc2cc1Cl (stereo not drawn) | – |
| – | Cc1cc(-c2c(O)nc3cc(Cl)c(C(=O)Nc4ccncn4)cc3c2OCC[C@@H]2CCCCN2)ccc1I | IC50 [1]: 0.5 nM; IC50 [3]: 7.1 nM |
| 0.3 nM | Cc1cc(C)cc(-c2c(O)nc3cc(Cl)c(NC(=O)Nc4cnccn4)cc3c2OCCC2CCCCN2)c1 (stereo not drawn) | IC50 [4]: 56 nM; IC50 [3]: 9 nM |
| – | Cc1cc(C)cc(-c2c(OCC[C@@H]3CCCCN3)c3cc(NC(=O)Nc4ccncn4)c(Cl)cc3[nH]c2=O)c1 | IC50 [1]: 1.8 nM |
| 63 nM | Cc1cc(-c2c(O)nc3cc(Cl)c([N+](=O)[O-])cc3c2OCCC2CCCCN2)cc(C(C)O)c1 (stereo not drawn) | – |
| 1.8 nM | Cc1cc(C)cc(-c2c(O)nc3cc(Cl)c(NC(=O)c4cnccn4)cc3c2OCCC2CCCCN2)c1 (stereo not drawn) | IC50 [4]: 1920 nM; IC50 [1]: 10 nM |
| 53 nM | O=c1[nH]c2cc(Cl)c([N+](=O)[O-])cc2c(OCCC2CCCCN2)c1-c1ccc2ccccc2c1 (stereo not drawn) | – |
| – | O=C(Nc1ccncn1)c1cc2c(OCC[C@@H]3CCCCN3)c(-c3ccc(Cl)c(Cl)c3)c(O)nc2cc1Cl | IC50 [1]: 1 nM; IC50 [3]: 7.7 nM |
| – | Cc1cc(C)cc(-c2c(OCC[C@@H]3CCCCN3)c3cc(NC(=O)Nc4cnccn4)c(Cl)cc3[nH]c2=O)c1 | IC50 [1]: 1.1 nM |
| – | O=C(Nc1ccncn1)c1cc2c(OCC[C@@H]3CCCCN3)c(-c3ccc4c(c3)CCC4)c(O)nc2cc1Cl | IC50 [1]: 0.7 nM; IC50 [3]: 16 nM |
| 900 nM | O=[N+]([O-])c1cc2c(OCCC3CCCCN3)c(-c3ccc(-c4ccccc4)c(Cl)c3)c(O)nc2cc1Cl (stereo not drawn) | – |
| 270 nM | CCN(CC)Cc1cc(C)cc(-c2c(OCCC3CCCCN3)c3cc([N+](=O)[O-])c(Cl)cc3[nH]c2=O)c1 (stereo not drawn) | – |
| 15 nM | Cc1cc(C)cc(-c2c(O)nc3cc(Cl)c(NC(=O)Nc4ccccn4)cc3c2OCCC2CCCCN2)c1 (stereo not drawn) | IC50 [4]: 463 nM |
| 360 nM | O=c1[nH]c2cc(Cl)c([N+](=O)[O-])cc2c(OCCC2CCCCN2)c1-c1ccccc1Cl (stereo not drawn) | – |
| 220 nM | O=c1[nH]c2cc(Cl)c([N+](=O)[O-])cc2c(OCCC2CCCCN2)c1-c1cccs1 (stereo not drawn) | – |
| 29 nM | O=[N+]([O-])c1cc2c(OCCC3CCCCN3)c(-c3ccc(Cl)c(Cl)c3)c(O)nc2cc1Cl (stereo not drawn) | – |
| 0.6 nM | Cc1cc(C)cc(-c2c(OCCC3CCCCN3)c3cc(NC(=O)Nc4ccncn4)c(Cl)cc3[nH]c2=O)c1 (stereo not drawn) | IC50 [4]: 235 nM and 52 nM; IC50 [5]: 0.4 nM |
| 40 nM | Cc1cc(C)cc(-c2c(O)nc3cc(Cl)c(NC(=O)Nc4ccncc4)cc3c2OCCC2CCCCN2)c1 (stereo not drawn) | – |
| 18 nM | O=C(Nc1cc2c(OCCC3CCCCN3)c(-c3ccc(Cl)c(Cl)c3)c(O)nc2cc1Cl)NC1CC1 (stereo not drawn) | – |
| 100 nM | O=[N+]([O-])c1cccc(-c2c(O)nc3cc(Cl)c([N+](=O)[O-])cc3c2OCCC2CCCCN2)c1 (stereo not drawn) | – |
| 600 nM | COc1ccc(-c2c(O)nc3cc(Cl)c([N+](=O)[O-])cc3c2OCCC2CCCCN2)cc1OC (stereo not drawn) | – |
| 40 nM | COc1ccc(-c2c(OCCC3CCCCN3)c3cc([N+](=O)[O-])c(Cl)cc3[nH]c2=O)cc1C (stereo not drawn) | – |
| 23 nM | Cc1cccc(-c2c(OCCC3CCCCN3)c3cc(NC(=O)NC4CC4)c(Cl)cc3[nH]c2=O)c1 (stereo not drawn) | – |
